Tests used:
Format in all cases: cell-based
[1] = system: NCI-H146; assay: Cell growth inhibition test, NCI-H146; details: Homo sapiens, 72 h; NCI-H146, Lung cancer, 3 days, CellTiter-Glo
Method: (§1) A cell growth inhibition test was carried out by treating a cultured cancer cell line with a test compound for a given period and then counting the number of viable cells by CellTiter-Glo Luminescent Cell Viability Assay (manufactured by Promega Corp.).
(§2) The following cells were inoculated to a 384-well plate containing the compound prepared in advance at predetermined concentrations. […]
(§3) The cells thus inoculated were cultured at 37° C. for 3 days under 5% CO2. […] Then, luminescence intensity was measured using a plate reader.
(§4) The number of viable cells and luminescence intensity have been confirmed to correlate with each other. Therefore, the rate of cell growth was calculated according to the following expression: Rate of cell growth (T/C %) of a test compound-supplemented well=100×[(B−C)/(A−C)] wherein A represents the luminescence intensity (final culture date) of a test compound-free well; B represents the luminescence intensity (final culture date) of a test compound-containing well; and C represents the luminescence intensity (day of cell inoculation) of a well at the start of contact of the cells with the test compound.
(§5) T/C % at the concentration of each of the serially diluted test compounds was determined. […]

[2] = system: K-562; assay: Cell growth inhibition test, K-562; details: Homo sapiens, K562, 72 h; K-562, Leukemia, 3 days, CellTiter-Glo
Method: as §1, §2, §3, §4, §5

[3] = system: AN3CA; assay: Cell growth inhibition test, AN3CA; details: Homo sapiens, AN3-CA, 72 h, Endometrial cancer, 3 days, CellTiter-Glo
Method: as §1, §2, §3, §4, §5

[4] = system: KASUMI-1; assay: Cell growth inhibition test, KASUMI-1; details: Homo sapiens, 72 h; KASUMI-1, Leukemia, 3 days, CellTiter-Glo
Method: as §1, §2, §3, §4, §5

[5] = system: U2 OS; assay: Cell growth inhibition test, U2 OS; details: Homo sapiens, U2OS, 72 h, Bone and soft tissue tumor, 3 days, CellTiter-Glo
Method: as §1, §2, §3, §4, §5

[6] = system: NCI-H460; assay: Cell growth inhibition test, NCI-H460; details: Homo sapiens, 72 h; NCI-H460, Lung cancer, 3 days, CellTiter-Glo
Method: as §1, §2, §3, §4, §5

[7] = system: ES-2; assay: Cell growth inhibition test, ES-2; details: Homo sapiens, 72 h; ES-2, Ovary cancer, 3 days, CellTiter-Glo
Method: as §1, §2, §3, §4, §5

[8] = system: CAL-51; assay: Cell growth inhibition test, CAL-51; details: Homo sapiens, 72 h; CAL-51, Breast cancer, 3 days, CellTiter-Glo
Method: as §1, §2, §3, §4, §5

[9] = system: MCF7; assay: Cell growth inhibition test, MCF7; details: Homo sapiens, 72 h; MCF7, Breast cancer, 3 days, CellTiter-Glo
Method: as §1, §2, §3, §4, §5

[10] = system: A-172; assay: Cell growth inhibition test, A-172; details: Homo sapiens, 72 h; A-172, Brain tumor Central Nerve System, 3 days, CellTiter-Glo
Method: as §1, §2, §3, §4, §5

[11] = system: HCC1954; assay: Cell growth inhibition test, HCC1954; details: Homo sapiens, 72 h; HCC1954, Breast cancer, 3 days, CellTiter-Glo
Method: as §1, §2, §3, §4, §5

[12] = system: MKN45; assay: Cell growth inhibition test, MKN45; details: Homo sapiens, MKN-45, 72 h; MKN45, Stomach cancer, 3 days, CellTiter-Glo
Method: as §1, §2, §3, §4, §5

[13] = system: D283 Med; assay: Cell growth inhibition test, D283 Med; details: Homo sapiens, 72 h, Brain tumor Central Nerve System, 3 days, CellTiter-Glo
Method: as §1, §2, §3, §4, §5

[14] = system: SK-MEL-28; assay: Cell growth inhibition test, SK-MEL-28; details: Homo sapiens, 72 h; SK-MEL-28, Skin cancer, 3 days, CellTiter-Glo
Method: as §1, §2, §3, §4, §5

[15] = system: NCI-N87; assay: Cell growth inhibition test, NCI-N87; details: Homo sapiens, 72 h; NCI-N87, Stomach cancer, 3 days, CellTiter-Glo
Method: as §1, §2, §3, §4, §5

[16] = system: U251; assay: Cell growth inhibition test, U251; details: Homo sapiens, U-251, 72 h; U251, Brain tumor Central Nerve System, 3 days, CellTiter-Glo
Method: as §1, §2, §3, §4, §5

[17] = system: HT-29; assay: Cell growth inhibition test, HT-29; details: Homo sapiens, 72 h; HT-29, Large intestine cancer, 3 days, CellTiter-Glo
Method: as §1, §2, §3, §4, §5

[18] = system: NCI-H1975; assay: Cell growth inhibition test, NCI-H1975; details: Homo sapiens, 72 h; NCI-H1975, Lung cancer, 3 days, CellTiter-Glo
Method: as §1, §2, §3, §4, §5

[19] = system: MOLT-4; assay: Cell growth inhibition test, MOLT-4; details: Homo sapiens, 72 h; MOLT-4, Leukemia, 3 days, CellTiter-Glo
Method: as §1, §2, §3, §4, §5

| GI50 [1] [µM] | GI50 [2] [µM] | GI50 [6] [µM] | GI50 [9] [µM] | GI50 [11] [µM] | GI50 [12] [µM] | GI50 [14] [µM] | GI50 [16] [µM] | GI50 [17] [µM] | GI50 [18] [µM] | GI50 [19] [µM] | Structure (SMILES) | GI50 [3] [µM] | GI50 [4] [µM] | GI50 [5] [µM] | GI50 [7] [µM] | GI50 [8] [µM] | GI50 [10] [µM] | GI50 [13] [µM] | GI50 [15] [µM] |
| --- | --- | --- | --- | --- | --- | --- | --- | --- | --- | --- | --- | --- | --- | --- | --- | --- | --- | --- | --- |
| 1.1 | 0.24 | 0.31 | 0.53 | 0.34 | 0.48 | 0.59 | 0.44 | 0.51 | 0.49 | 0.13 | CCOc1ccc(Cl)cc1C(=O)NCC(C)(C)CC(=O)Nc1c([C@H](C)CN(C)C)n(C)n(-c2ccccc2)c1=O [Example 68, 5-Chloro-N-[4-({5-[(1R)-2-(dimethylamino)-1-methylethyl]-1-methyl-3-oxo-2-phenyl-2,3-dihydro-1H-pyrazol-4-yl}amino)-2,2-dimethyl-4-oxobutyl]-2-ethoxybenzamide] | 0.74 | 0.14 | 0.53 | 0.48 | 0.8 | 0.38 | 0.13 | 0.27 |
| 2.7 | 0.56 | 0.73 | 0.98 | 0.92 | 1.1 | 0.92 | 0.98 | 1.2 | 0.9 | 0.18 | CCOc1ncc(Cl)cc1C(=O)NCC(C)(C)CC(=O)Nc1c([C@H](C)CN(C)C)n(C)n(-c2ccccc2)c1=O [Example 73, 5-Chloro-N-[4-({5-[(1R)-2-(dimethylamino)-1-methylethyl]-1-methyl-3-oxo-2-phenyl-2,3-dihydro-1H-pyrazol-4-yl}amino)-2,2-dimethyl-4-oxobutyl]-2-ethoxypyridine-3-carboxamide] | 2.2 | 0.24 | 0.92 | 0.9 | 1.3 | 0.6 | 0.31 | 0.66 |
| 2 | 0.63 | 0.55 | 0.75 | 0.72 | 1 | 0.8 | 0.8 | 0.92 | 0.81 | 0.16 | CCOc1cc(F)c(Cl)cc1C(=O)NCC(C)(C)CC(=O)Nc1c(COC)n(C)n(-c2ccccc2)c1=O [Example 113, 5-Chloro-2-ethoxy-4-fluoro-N-(4-{[5-(methoxymethyl)-1-methyl-3-oxo-2-phenyl-2,3-dihydro-1H-pyrazol-4-yl]amino}-2,2-dimethyl-4-oxobutyl)benzamide] | 1.4 | 0.23 | 0.64 | 0.75 | 0.62 | 0.49 | 0.23 | 0.53 |

Source: patent publication US20170107207A1, “AMINOPYRAZOLONE DERIVATIVE” (DAIICHI SANKYO COMPANY, LIMITED, priority 2014, published 2017)
